In data set [1] the test system is glaucoma patients. Kind of data set: Clinical trial: effect of ophthalmic ointment comprising 0.01 % active substance on intraocular pressure (I.O.P.). The settings on record: human, in vivo.
Procedure: (§1) The clinical tests on glaucoma patients were performed with an ophthalmic ointment comprising 0.01 % and 0.025 % of dihydro­ergotoxine methanesulfonate or bromocryptine methanesulfonate.
Effect of ophthalmic ointment comprising 0.01 % of dihydroer­gotoxine methanesulfonate or bromocryptine methanesulfonate on the intraocular pressure (I.O.P.) in glaucoma patients
The effect of the ophthalmic ointment comprising 0.01 % of dihydroergotoxine (as base and as methanesulfonate salt) and of bromocryptine methanesulfonate on the intraocular pressure in both eyes was tested in five male and three female glaucoma patients aged from 34 to 62 years.
The subject of data set [2] is glaucoma patients. The settings on record: human, in vivo.
Procedure: as §1
The effect of the ophthalmic ointment comprising 0.025 % of dihydroergotoxine methanesulfonate or bromocryptine methane­sulfonate on the intraocular pressure in both eyes was tested in four male and three female glaucoma patients, agend from 31 to 64 years.
The ointment was applied into the conjunctival sac in the morning and in the evening. Before application, the I.O.P. was measured. This procedure was repeated for five days.

As to `CC(C)C[C@H]1C(=O)N2CCC[C@H]2[C@]2(O)O[C@](NC(=O)[C@@H]3C=C4c5cccc6[nH]c(Br)c(c56)C[C@H]4N(C)C3)(C(C)C)C(=O)N12` [bromocryptine methanesulfonate], in the data set on glaucoma patients [1], the “maximum reduction of I.O.P.” value was 21% and the “time for which the effect (reduction of I.O.P.) was present” value was “at least five”. In addition, in the data set on glaucoma patients [2], the “I.O.P. from which it decreased” value was found to be 4.00 kPa, the “I.O.P. to which it decreased” value is 2.67 kPa, the “reduction of intraocular pressure” value turned out to be 30% and the undesired side effects entry is listed as “No undesired side effects”.

Source of the values: patent EP0342396A1, “Ophthalmic ointments for the treatment of glaucoma, comprising ergot alkaloids” (LEK, tovarna farmacevtskih in kemicnih izdelkov, n.sol.o., priority 1988, dated 1989).
